Assay type in all cases: cell-based
A short description of assay [1]: Inhibition of RPMI-8226 cell proliferation (CellTiter luminescent viability). To be noted: Homo sapiens, read-out: Inhibition Rate at 10 nM (%). Here is the method: (§1) The tumor cells used herein were cultured in a cell culture medium listed in table 3 at 37 °C in an incubator with 5% CO2. Prior to experimentation, all cell lines used were correctly identified by STR profiling, and tested negative for mycoplasma contamination using a mycoplasma detection kit through routine screenings.
(§2) The IC50 values of the compounds of the present disclosure (including the compounds in Table 1, Table 2, and Examples 1-468) were determined using the CellTiter-Meiluncell Luminescent Cell Viability Assay Kit from Dalian Meilun Biotech Co., Ltd. The detailed procedure is as follows: Tumor cells were seeded in 96-well cell culture plates at the densities specified in Table 4. On the following day, the test compounds of the present disclosure were subjected to serial dilution. The dilution can be performed according to one of the following two methods: • (1) The first dilution method: The test compounds of the present disclosure (including the compounds in Table 1, Table 2, and Examples 1-468) were subjected to 5-fold serial dilutions starting from a highest concentration of 2000 μM, resulting in a total of 9 concentrations from high to low (2000, 400, 80, 16, 3.2, 0.64, 0.128, 0.0256, 0.00512 μM). Subsequently, 0.5 μL of the test compound dilution was transferred into the 96-well plate containing the cells, with each well containing 100 μL of cell culture medium. […] Into the 96-well plate, the diluted test compounds and corresponding detection reagents were added, resulting in final test compound concentrations of 500 nM and 10 nM, respectively. The experimental procedure is described below using the diluted 2 μM test compound as an example.
(§3) 0.5 μL of the aforementioned diluted compound of the present disclosure (including the compounds in Table 1, Table 2, and Examples 1-468) was added to the seeded cells in 100 μL of medium, yielding a final test compound concentration of 10 nM. After the cells were treated with the compounds of the present disclosure for a specified period, the cell viability assay reagent was added to the culture medium according to the kit's instructions to determine cell viability. […] All controls were treated using the same procedure as the compounds of the present disclosure. The growth inhibition curves for the compounds of the present disclosure were plotted using Prism GraphPad software, and the IC50 values were calculated therefrom.

Assay [2] concerns Human B-Cell Lymphoma Cells (RPMI-8226). Described as above. The conditions noted are these: RPMI-8226, 500 nM, read-out: Inhibition Rate at 500 nM (%). Here is the method:
as §1, §2, §3

For assay [3], the system named is Human myeloid monocytic leukemia cell line (MV-4-11). Description: Inhibition of MV-4-11 cell proliferation (CellTiter luminescent viability). To be noted: Homo sapiens, MV4-11, Table IA3, IRAK4 inhibitor-based, 96 hours; for inhibition at 0.01 µM: MV-4-11, 10 nM, read-out: Inhibition Rate at 10 nM (%); for inhibition at 0.5 µM: MV-4-11, 500 nM, read-out: Inhibition Rate at 500 nM (%). A digest of the protocol:
(§4)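 Cells are seeded in 96-well plates, cultured at 37 °C, 5% CO2, and treated next day with 5-fold serial compound dilutions (stock series from 2000 μM; 0.5 μL into 100 μL medium). Viability is read by CellTiter-Meiluncell luminescence after the set exposure, and IC50 is taken from growth-inhibition curves.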

The subject of assay [4] is Human Multiple myeloma cell line (MM.1S). Description: Inhibition of MM.1S cell proliferation (CellTiter luminescent viability). To be noted: Homo sapiens, MM1.S, Table IA5, IRAK4 inhibitor-based, 96 hours; for inhibition at 0.01 µM: 10 nM, read-out: Inhibition Rate at 10 nM (%); for inhibition at 0.5 µM: 500 nM, read-out: Inhibition Rate at 500 nM (%). A digest of the protocol: as §4

Assay [5] deals with Human Acute T Lymphoblastic Leukemia Cells (Molt-4). The assay can be described thus: Inhibition of Molt-4 cell proliferation (CellTiter luminescent viability). To be noted: Homo sapiens, MOLT-4, 96 h, Table IA2, IRAK4 inhibitor-based, 96 hours; for inhibition at 0.01 µM: Molt-4, 10 nM, read-out: Inhibition Rate at 10 nM (%); for inhibition at 0.5 µM: Molt-4, 500 nM, read-out: Inhibition Rate at 500 nM (%). Here is the method:
as §1, §2, §3

[6] abbreviates: Table IA4, IRAK4 inhibitor-based, RPMI-8226, 10 nM, 96 hours.
[7] abbreviates: Table IA4, IRAK4 inhibitor-based, 96 hours.

The structures appear in SMILES notation. Like-named read-outs stand apart in the source and are kept apart here.

For `O=C1CCN(N2Cc3cc(CN4CCC(n5cc(NC(=O)c6coc(-c7ccnc(NCC(F)(F)F)c7)n6)c(C(F)F)n5)CC4)ccc3C2=O)C(=O)N1` [GT-05184, N-(3-(difluoromethyl)-1-(1-((2-(2,4-dioxotetrahydropyrimidin-1(2H)-yl)-1-oxoisoindolin-5-yl)methyl)piperidin-4-yl)-1H-pyrazol-4-yl)-2-(2-((2,2,2-trifluoroethyl)amino)pyridin-4-yl) oxazole-4-carboxamide], the inhibition (as a rule, the share of the control response that was lost under treatment) at 0.01 µM was 20 to 25% in assay [1] (setting [6]), 50 to 60% in assay [3], 5 to 10% in assay [4] and 3 to 7% in assay [5]. In addition, the inhibition at 0.5 µM in assay [2] (setting [7]), in assay [3], in assay [4] and in assay [5] was 80 to 100% each time.
With `CC(C)(O)c1cc2nc(C3CCN(CC4CCN(c5ccc6c(c5)C(=O)N(N5CCC(=O)NC5=O)C6=O)CC4)CC3)oc2cc1NC(=O)c1cccc(C(F)(F)F)n1` [GT-05222, N-(2-(1-((1-(2-(2,4-dioxotetrahydropyrimidin-1(2H)-yl)-1,3-dioxoisoindolin-5-yl)piperidin-4-yl)methyl)piperidin-4-yl)-5-(2-hydroxypropan-2-yl)benzo[d]oxazol-6-yl)-6-(trifluoromethyl) picolinamide], the inhibition at 0.01 µM in assay [1] (setting [6]) and in assay [4] was 30 to 40% throughout. For the same compound, the inhibition at 0.5 µM was in the range of 30 to 40% in assay [2] (setting [7]) and 25 to 30% in assay [4].
`O=C1CCN(N2C(=O)c3cccc(N4CCC(CN5CCC(n6cc(NC(=O)c7cnn8ccc(N9CCOCC9)nc78)c(C(F)F)n6)CC5)CC4)c3C2=O)C(=O)N1` [GT-05224, N-(3-(difluoromethyl)-1-(1-((1-(2-(2,4-dioxotetrahydropyrimidin-1(2H)-yl)-1,3-dioxoisoindolin-4-yl)piperidin-4-yl)methyl)piperidin-4-yl)-1H-pyrazol-4-yl)-5-morpholinopyrazolo[1,5-a]pyrimidine-3-carboxamide]: the inhibition at 0.01 µM fell in the range of 20 to 25% in assay [1] (setting [6]), 50 to 60% in assay [3], 15 to 20% in assay [4] and 0 to 3% in assay [5]. In addition, the inhibition at 0.5 µM was in the range of 30 to 40% in assay [2] (setting [7]), 80 to 100% in assay [3], 60 to 80% in assay [4] and 80 to 100% in assay [5].
`CC(C)(O)c1cc2nc(C3CCN(Cc4ccc5c(c4)CN(N4CCC(=O)NC4=O)C5=O)CC3)sc2cc1NC(=O)c1cccc(C(F)(F)F)n1` [GT-05747, N-(2-(1-((2-(2,4-dioxotetrahydropyrimidin-1(2H)-yl)-1-oxoisoindolin-5-yl)methyl)piperidin-4-yl)-5-(2-hydroxypropan-2-yl)benzo[d]thiazol-6-yl)-6-(trifluoromethyl) picolinamide]: the inhibition at 0.01 µM was 25 to 30% in assay [1] (setting [6]) and 36 to 45% in assay [3]. Moreover, the inhibition at 0.5 µM was in the range of 25 to 30% in assay [2] (setting [7]) and 80 to 100% in assay [3].
Take `Cc1cc(-c2nc(C(=O)Nc3cc4oc(N5CCN(Cc6ccc7c(c6)CN(N6CCC(=O)NC6=O)C7=O)CC5)nc4nc3N3CC[C@@H](O)C3)co2)ccn1` [GT-05750, (R)—N-(2-(4-((2-(2,4-dioxotetrahydropyrimidin-1(2H)-yl)-1-oxoisoindolin-5-yl)methyl)piperazin-1-yl)-5-(3-hydroxypyrrolidin-1-yl)oxazolo[4,5-b]pyridin-6-yl)-2-(2-methylpyridin-4-yl) oxazole-4-carboxamide]: the inhibition at 0.01 µM in assay [1] (setting [6]) fell in the range of 25 to 30%; in assay [3], 36 to 45%. Moreover, the figures for the inhibition at 0.5 µM in assay [2] (setting [7]) and in assay [3] were 20 to 25% and 80 to 100%, respectively.
For `O=C1CCN(N2C(=O)c3ccc(N4CCC(N5CCC(CN6CCC(n7cc(NC(=O)c8cnn9ccc(N%10CCOCC%10)nc89)c(C(F)F)n7)CC6)CC5)CC4)cc3C2=O)C(=O)N1` [GT-05760, N-(3-(difluoromethyl)-1-(1-((1′-(2-(2,4-dioxotetrahydropyrimidin-1(2H)-yl)-1,3-dioxoisoindolin-5-yl)-[1,4′-bipiperidin]-4-yl)methyl)piperidin-4-yl)-1H-pyrazol-4-yl)-5-morpholinopyrazolo[1,5-a]pyrimidine-3-carboxamide], the values for the inhibition at 0.01 µM in assay [1] (setting [6]), in assay [3] and in assay [4] were 25 to 30%, 50 to 60% and 25 to 30%, respectively. For the same compound, the inhibition at 0.5 µM fell in the range of 30 to 40% in assay [2] (setting [7]), 80 to 100% in assay [3] and 30 to 40% in assay [4].
Turning to `Cc1cc(-c2nc(C(=O)Nc3cc4oc(N5CCN(Cc6ccc7c(c6)C(=O)N(N6CCC(=O)NC6=O)C7=O)CC5)nc4nc3N3CC[C@@H](O)C3)co2)ccn1` [GT-05803, (R)—N-(2-(4-((2-(2,4-dioxotetrahydropyrimidin-1(2H)-yl)-1,3-dioxoisoindolin-5-yl)methyl)piperazin-1-yl)-5-(3-hydroxypyrrolidin-1-yl)oxazolo[4,5-b]pyridin-6-yl)-2-(2-methylpyridin-4-yl) oxazole-4-carboxamide], the figures for the inhibition at 0.01 µM in assay [1] (setting [6]), in assay [3] and in assay [4] were 25 to 30%, 50 to 60% and 30 to 40%, respectively. The values for the inhibition at 0.5 µM in assay [2] (setting [7]), in assay [3] and in assay [4] were 20 to 25%, 60 to 80% and 25 to 30%, respectively.
With `N#CC1(CNc2nc(-c3cc(NC4CCN(CC5CCN(c6cccc7c6C(=O)N(N6CCC(=O)NC6=O)C7=O)CC5)CC4)ncc3Cl)cs2)CCOCC1` [GT-08345, 4-(((4-(5-chloro-2-((1-((1-(2-(2,4-dioxotetrahydropyrimidin-1(2H)-yl)-1,3-dioxoisoindolin-4-yl)piperidin-4-yl)methyl)piperidin-4-yl)amino)pyridin-4-yl)thiazol-2-yl)amino)methyl)tetrahydro-2H-pyran-4-carbonitrile], the inhibition at 0.01 µM in assay [1] (RPMI-8226, 10 nM) was in the range of 20 to 30%. The inhibition at 0.5 µM in assay [2] was 5 to 10%.

For the origin of these results see patent publication US20260364184A1, “COMPOUND BASED ON OXOISOINDOLINYL-SUBSTITUTED TETRAHYDROPYRIMIDINE-DIONE AND USE THEREOF” (GLUETACS THERAPEUTICS (SHANGHAI) CO., LTD., priority 2023, published 2026).
